Data taken from US5905076A, “6-substituted amino-4-oxa-1-azabicyclo [3,2,0] heptan-7-one derivatives as cysteine protease inhibitors” (National Research Council of Canada, priority 1997, dated 1999).

How the values were obtained:
[1] = molecular target: cathepsin L (Rattus norvegicus, UniProt P07154); experiment: In vitro inhibition of cathepsin L; type: biochemical; details: r rat cathepsin L, substrate N-CBZ-Phe-Arg-AMC, pH 5.0, 10 min incubation at room temperature
Protocol: In vitro assay procedure for cathepsin L
After 10 min of incubation at room temperature, a 20 μl of 1 mM substrate (N-CBZ-Phe-Arg-AMC, dissolved in DMSO) was added to initiate reaction. Reading is followed up for 10 min at the fluoroscan reader (excitation at 380 nm emission at 460 nm).

[2] = molecular target: cathepsin B (Rattus norvegicus, UniProt P00787); experiment: In vitro inhibition of cathepsin B; type: biochemical; details: r rat cathepsin B, substrate N-CBZ-Phe-Arg-AMC, pH 5.1, 10 min incubation at room temperature
Protocol: In vitro assay procedure for cathepsin B
The compounds of formula I were tested for inhibition of cathepsin B using the known method (A. J. Barret et al., Biochem. J. 1982, 201, 189-198). To a 170 μl of enzyme-buffer mixture (enzyme: r rat cathepsin B, diluted to give approximate 10 F units/min, buffer: 56 mM sodium acetate, 1.124 mM EDTA, 10 mM DTT, pH 5.1) a 10 μL of inhibitor (dissolved in DMSO) was added. After 10 min of incubation at room temperature, a 20 μl of 5 mM substrate (N-CBZ-Phe-Arg-AMC, dissolved in DMSO) was added to initiate reaction. Reading is followed up for 10 min at the fluoroscan reader (excitation at 380 nm emission at 460 nm).
A plot of percentage of inhibition vs inhibitor concentration is obtained, and IC50 is determined using a linear regression calculations (concentration of inhibitor which will give 50% inhibition).

cathepsin B, sequence (P00787 80-339): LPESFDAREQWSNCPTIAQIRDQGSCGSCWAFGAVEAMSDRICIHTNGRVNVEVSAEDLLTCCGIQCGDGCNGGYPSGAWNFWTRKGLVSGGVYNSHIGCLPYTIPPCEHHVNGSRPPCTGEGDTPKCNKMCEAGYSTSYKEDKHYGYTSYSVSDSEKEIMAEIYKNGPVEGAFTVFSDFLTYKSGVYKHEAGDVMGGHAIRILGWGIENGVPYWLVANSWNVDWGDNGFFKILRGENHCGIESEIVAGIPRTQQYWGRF
cathepsin L, sequence (P07154 114-334): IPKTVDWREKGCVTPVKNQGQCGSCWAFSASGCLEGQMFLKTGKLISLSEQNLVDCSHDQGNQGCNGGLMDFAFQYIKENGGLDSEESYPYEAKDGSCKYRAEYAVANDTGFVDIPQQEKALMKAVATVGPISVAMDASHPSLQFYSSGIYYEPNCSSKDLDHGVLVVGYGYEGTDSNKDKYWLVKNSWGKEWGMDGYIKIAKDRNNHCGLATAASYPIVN

| IC50 [1] [µM] | IC50 [2] [µM] | SMILES |
| --- | --- | --- |
| – | > 50 | O=C(NC(C(=O)N[C@@H]1C(=O)N2CCO[C@H]12)c1ccccc1)OCc1ccccc1 (stereo partly drawn) [Example 7, (5R,6S)-6-(N-benzyloxycarbonyl-phenylglycyl)-amino-4-oxa-1-azabicyclo[3.2.0]heptan-7-one] |
| 0.26 | 4.56 | O=C(N[C@@H](Cc1ccccc1)C(=O)N[C@@H]1C(=O)N2CCO[C@H]12)OCc1ccccc1 [Example 2, (5R,6S)-6-(N-benzyloxycarbonyl-L-phenylalanyl)-amino-4-oxa-1-azabicyclo[3.2.0]heptan-7-one] |
| – | 12.2 | O=C(N[C@@H](Cc1ccccc1)C(=O)N[C@@H]1C(=O)N2CCO[C@@H]12)OCc1ccccc1 [Example 8, (5S,6S)-6-(N-benzyloxycarbonyl-L-phenylalanyl)-amino-4-oxa-1-azabicyclo[3.2.0]heptan-7-one] |

The remaining lines, values behind:

| SMILES | IC50 [1] [µM] | IC50 [2] [µM] |
| --- | --- | --- |
| CC[C@H](C)[C@H](NC(=O)OCc1ccccc1)C(=O)N[C@@H]1C(=O)N2CCO[C@H]12 [Example 4, (5R,6S)-6-(N-benzyloxycarbonyl-L-isoleucyl)-amino-4-oxa-1-azabicyclo[3.2.0]heptan-7-one] | 9.88 | > 50 |
| CC(C)C[C@H](NC(=O)OCc1ccccc1)C(=O)N[C@@H]1C(=O)N2CCO[C@H]12 [Example 6, (5R,6S)-6-(N-benzyloxycarbonyl-L-leucyl)-amino-4-oxa-1-azabicyclo[3.2,0]heptan-7-one] | 0.6 | 30 |
| O=C(N[C@@H]1C(=O)N2CCO[C@H]12)[C@@H]1CCCN1C(=O)OCc1ccccc1 [Example 3, (5R,6S)-6-(N-benzyloxycarbonyl-L-prolyl)-amino-4-oxa-1-azabicyclo[3.2.0]heptan-7-one] | 9.4 | > 50 |
| O=C(N[C@@H]1C(=O)N2CCO[C@H]12)OCc1ccccc1 [Example 1, (5R,6S)-6-benzyloxycarbonylamino-4-oxa-1-azabicyclo[3.2.0]heptan-7-one] | > 50 | > 50 |
| O=C(CCc1ccccc1)N[C@@H](Cc1ccccc1)C(=O)N[C@@H]1C(=O)N2CC(CBr)O[C@@H]12 (stereo partly drawn) [Example 10, (5S,6S)-6-{N-(3-phenylpropionoyl)-L-phenylalanyl}-amino-3-bromomethyl-4-oxa-1-azabicyclo[3.2.0]heptan-7-one] | 0.016 | 1.91 |
| C[C@H](NC(=O)OCc1ccccc1)C(=O)N[C@@H]1C(=O)N2CCO[C@H]12 [Example 5, (5R,6S)-6-(N-benzyloxycarbonyl-L-alanyl)-amino-4-oxa-1-azabicyclo[3.2,0]heptan-7-one] | – | > 50 |
| O=C(CCc1ccccc1)N[C@@H](Cc1ccccc1)C(=O)N[C@@H]1C(=O)N2CC(c3ccccc3)O[C@H]12 (stereo partly drawn) [Example 9, (5R,6S)-6-{N-(3-phenylpropionoyl)-L-phenylalanyl}-amino-3-phenyl-4-oxa-1-azabicyclo[3,2.0]heptan-7-one] | > 50 | > 50 |
